PubChem BioAssay AID180 (DTP/NCI, 2004)
“And” between values parts separate entries of the source, which are not always exact repeats. Equal entries are not always repeated.

System: BDF1 mice, Adenocarcinoma 755 s.c., tumor weight T/C
Assay: NCI In Vivo Anticancer Drug Screen. Data for tumor model Adenocarcinoma 755 (subcutaneous) in B6D2F1 (BDF1) mice
Conditions: endpoint: mean tumor weight, higher = larger tumour
In short: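 Tumor-bearing mice receive test compound while controls get vehicle alone. Antitumor effect is scored from survival or tumor dimensions as a T/C quotient.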

[1] = dose: 250.0 mg/kg/injection, schedule: Q01DX011 (ip), vehicle: carboxymethylcellulose (CMC)
[2] = dose: 500.0 mg/kg/injection, schedule: Q01DX011 (ip), vehicle: carboxymethylcellulose (CMC)

Nc1ccn(C2OC(CO)C(O)C2O)c(=O)n1 (stereo unspecified)
T/C (dose: 15.0 mg/kg/injection, schedule: Q01DX011 (ip), vehicle: saline): 36 % of control
T/C (dose: 27.0 mg/kg/injection, schedule: Q01DX011 (ip), vehicle: saline): 14 % of control
T/C (dose: 30.0 mg/kg/injection, schedule: Q01DX011 (ip), vehicle: saline): 36 % of control
T/C (dose: 40.0 mg/kg/injection, schedule: Q01DX011 (ip), vehicle: saline): 7 % of control
T/C (dose: 60.0 mg/kg/injection, schedule: Q## X024 (ip), vehicle: saline): 15 % of control
T/C (dose: 120.0 mg/kg/injection, schedule: Q## X024 (ip), vehicle: saline): 8 % of control

CC(=O)OCC(=O)C1(O)C(C)CC2C3C=C(C)C4=Cc5c(cnn5-c5ccccc5)CC4(C)C3C(O)CC21C (stereo unspecified)
T/C (dose: 0.01 mg/kg/injection, schedule: Q01DX011 (sc), vehicle: steriod suspending solution): 74 % of control
T/C (dose: 0.02 mg/kg/injection, schedule: Q01DX011 (sc), vehicle: steriod suspending solution): 59 % of control
T/C (dose: 0.05 mg/kg/injection, schedule: Q01DX011 (sc), vehicle: steriod suspending solution): 46 % of control and 48 % of control
T/C (dose: 0.1 mg/kg/injection, schedule: Q01DX011 (sc), vehicle: steriod suspending solution): 19 % of control and 23 % of control
T/C (dose: 0.2 mg/kg/injection, schedule: Q01DX011 (sc), vehicle: steriod suspending solution): 9 % of control and 13 % of control
T/C (dose: 1.0 mg/kg/injection, schedule: Q01DX011 (sc), vehicle: steriod suspending solution): 14 % of control
T/C (dose: 5.0 micrograms/kg/injection, schedule: Q01DX011 (sc), vehicle: steriod suspending solution): 54 % of control
T/C (dose: 10.0 micrograms/kg/injection, schedule: Q01DX011 (sc), vehicle: steriod suspending solution): 106 % of control
T/C (dose: 25.0 micrograms/kg/injection, schedule: Q01DX011 (sc), vehicle: steriod suspending solution): 46 % of control

NC(C=O)C(O)C(O)C(O)CO (stereo unspecified)
T/C [1]: 104 % of control and 204 % of control
T/C [2]: 225 % of control
T/C (dose: 1000.0 mg/kg/injection, schedule: Q01DX011 (ip), vehicle: carboxymethylcellulose (CMC)): 102 % of control and 110 % of control
T/C (dose: 2000.0 mg/kg/injection, schedule: Q01DX011 (ip), vehicle: methylcellulose (MC)): 89 % of control
T/C (dose: 2500.0 mg/kg/injection, schedule: Q01DX011 (ip), vehicle: methylcellulose (MC)): 72 % of control

CCCCCn1cnc2c(SCc3ccccc3)nc(N)nc21
T/C (dose: 37.5 mg/kg/injection, schedule: Q01DX011 (ip), vehicle: saline): 68 % of control
T/C (dose: 75.0 mg/kg/injection, schedule: Q01DX011 (ip), vehicle: saline): 78 % of control
T/C (dose: 150.0 mg/kg/injection, schedule: Q01DX011 (ip), vehicle: saline): 77 % of control

S=c1nc[nH]c2c1ncn2C1CC1
T/C (dose: 31.0 mg/kg/injection, schedule: Q01DX011 (ip), vehicle: carboxymethylcellulose (CMC)): 86 % of control
T/C (dose: 62.0 mg/kg/injection, schedule: Q01DX011 (ip), vehicle: carboxymethylcellulose (CMC)): 89 % of control
T/C (dose: 125.0 mg/kg/injection, schedule: Q01DX011 (ip), vehicle: carboxymethylcellulose (CMC)): 86 % of control
T/C [1]: 33 % of control
T/C [2]: 59 % of control

CSc1ncnc2c1ncn2C1CCCS1 (stereo unspecified)
T/C (dose: 25.0 mg/kg/injection, schedule: Q01DX011 (ip), vehicle: methylcellulose (MC)): 61 % of control
T/C (dose: 75.0 mg/kg/injection, schedule: Q01DX011 (ip), vehicle: methylcellulose (MC)): 66 % of control
T/C (dose: 225.0 mg/kg/injection, schedule: Q01DX011 (ip), vehicle: methylcellulose (MC)): 54 % of control

NNc1nncc2ccccc12
T/C (dose: 37.5 mg/kg/injection, schedule: Q01DX011 (ip), vehicle: carboxymethylcellulose (CMC)): 90 % of control
T/C (dose: 75.0 mg/kg/injection, schedule: Q01DX011 (ip), vehicle: carboxymethylcellulose (CMC)): 47 % of control

COC(=O)C1=COC(C)C2CN3CCc4c([nH]c5cc(OC)ccc45)C3CC12 (stereo unspecified)
T/C (dose: 22.0 mg/kg/injection, schedule: Q01DX011 (ip), vehicle: other): 116 % of control
T/C (dose: 44.0 mg/kg/injection, schedule: Q01DX011 (ip), vehicle: other): 98 % of control
T/C (dose: 87.5 mg/kg/injection, schedule: Q01DX011 (ip), vehicle: other): 80 % of control
